Key:
[1] = assay type: in vitro ADME; conditions: rat microsomes, incubation period of 60 min
[2] = assay type: in vitro ADME; conditions: rat protein binding
[3] = assay type: in vitro ADME; conditions: human protein binding
[4] = target: hmGlu4 (Homo sapiens, UniProt Q14833)
[5] = assay type: in vitro ADME; conditions: human microsomes, incubation period of 60 min

hmGlu4, sequence (Q14833 33-912): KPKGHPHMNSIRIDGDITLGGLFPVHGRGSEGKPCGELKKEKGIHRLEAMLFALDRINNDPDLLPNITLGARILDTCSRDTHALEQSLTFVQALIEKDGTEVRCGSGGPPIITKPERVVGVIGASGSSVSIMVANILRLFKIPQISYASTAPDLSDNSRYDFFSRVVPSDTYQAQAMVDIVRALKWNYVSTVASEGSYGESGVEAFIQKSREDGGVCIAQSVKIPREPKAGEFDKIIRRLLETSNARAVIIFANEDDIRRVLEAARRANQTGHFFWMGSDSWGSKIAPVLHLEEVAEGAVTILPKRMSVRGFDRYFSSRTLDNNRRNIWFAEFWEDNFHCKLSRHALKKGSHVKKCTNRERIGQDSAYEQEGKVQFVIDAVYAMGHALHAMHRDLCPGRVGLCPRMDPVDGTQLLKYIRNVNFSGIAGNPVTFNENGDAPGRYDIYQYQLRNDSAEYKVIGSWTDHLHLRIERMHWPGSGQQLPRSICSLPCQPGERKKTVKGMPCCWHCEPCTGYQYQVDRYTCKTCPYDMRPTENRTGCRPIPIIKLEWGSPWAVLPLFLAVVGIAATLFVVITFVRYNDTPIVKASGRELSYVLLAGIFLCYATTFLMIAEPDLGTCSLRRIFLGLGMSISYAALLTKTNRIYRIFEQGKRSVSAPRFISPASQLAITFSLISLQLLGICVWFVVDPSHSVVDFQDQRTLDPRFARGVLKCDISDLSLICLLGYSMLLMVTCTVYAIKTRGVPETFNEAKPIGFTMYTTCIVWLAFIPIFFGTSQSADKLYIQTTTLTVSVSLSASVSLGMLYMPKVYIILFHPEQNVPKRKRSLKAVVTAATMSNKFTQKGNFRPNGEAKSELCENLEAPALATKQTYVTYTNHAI

SMILES | RLM (% remaining) [1] [% remaining] | PPB (r) (% free) [2] [% free] | PPB (h) (% free) [3] [% free] | increase in potency relative to 4 ([4]; 2-furyl amide of 4 changed to 2-pyridyl amide) [fold] | receptor activation in the absence of glutamate ([4]; mGlu4/Gqi5 CHO cells, absence of an EC20 concentration of glutamate) | HLM (% remaining) [5] [% remaining] | loss of potency ([4]; relative to the parent compound (13 vs 11; N-Me vs NH sulfonamides)) [fold]
Cc1cc(C)c(NS(=O)(=O)c2ccc(NC(=O)c3ccco3)cc2)c(C)c1 [Compound 4] | 93.3 | 8.2 | 2.2 | – | – | – | –
Cc1cc(C)c(NS(=O)(=O)c2ccc(NC(=O)c3ccccn3)cc2)c(C)c1 [Compound 5] | 25.8 | 0.3 | 0.1 | 30 | does not elicit receptor activation | – | –
O=C(Nc1ccc(S(=O)(=O)Nc2ccccc2Cl)cc1)c1ccccn1 [Compound 8b] | 0.02 | 0.3 | 0.1 | – | – | 0.02 | –
O=C(Nc1ccc(S(=O)(=O)Nc2ccccc2Cl)cc1)c1nccs1 [Compound 9d] | 1.2 | 0.1 | 0.1 | – | – | 0.84 | –
CN(c1ccccc1Cl)S(=O)(=O)c1ccc(NC(=O)c2ccncn2)cc1 [Compound 9f] | 3.3 | 2.7 | 1.7 | – | – | 2.5 | –
CN(c1ccccc1Cl)S(=O)(=O)c1ccc(NC(=O)c2nccs2)cc1 [Compound 9g] | 0.08 | 37 | 0.5 | – | – | 0.1 | –
COc1ccccc1NS(=O)(=O)c1ccc(NC(=O)c2ccccn2)cc1OC [Compound 10] | 0.05 | 12.7 | 0.3 | – | – | 1.3 | –
O=C(Nc1ccc(S(=O)(=O)Nc2ccccc2Cl)c(Cl)c1)c1ccccn1 [Compound 11] | 0.02 | – | – | – | – | 0.63 | –
O=C(Nc1ccc(Cl)c(S(=O)(=O)Nc2ccccc2Cl)c1)c1ccccn1 [Compound 13] | 0.05 | – | – | – | – | 11.9 | 36
